Assay results reported in PMC3905752 (Nature chemical biology, 2013).

What was measured:
Format in all cases: biochemical
[1] = target: Cdc34A^Glu133Arg (Homo sapiens, UniProt P49427, E133R); assay: Sic1-SCF^Cdc4 ubiquitination assay with Cdc34A^Glu133Arg mutant; conditions: Cdc34A^Glu133Arg mutant with Ub^Arg42Glu mutant
[2] = target: T1, Cdc34A^Glu133Arg (Homo sapiens, UniProt P49427, E133R); assay: as above; conditions: Cdc34A^Glu133Arg mutant, wild type ubiquitin
T1 sequence (P49427 1-236 E133R): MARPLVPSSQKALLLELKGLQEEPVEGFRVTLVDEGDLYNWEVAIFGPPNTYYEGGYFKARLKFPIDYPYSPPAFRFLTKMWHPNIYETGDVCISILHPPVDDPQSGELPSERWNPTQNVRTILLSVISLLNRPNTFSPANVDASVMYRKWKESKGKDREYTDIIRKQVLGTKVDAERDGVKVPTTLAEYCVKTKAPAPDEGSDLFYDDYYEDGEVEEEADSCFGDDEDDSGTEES

[3] = target: ubiquitin~Cdc34A thioester (Homo sapiens, UniProt P0CG48+P49427, K48R); assay: Spontaneous hydrolysis of the ubiquitin~Cdc34A^FL thioester; conditions: 100 μM CC0651

Sensitivity of Sic1 ubiquitination to CC0651 [1]: restored | Sensitivity of Sic1 ubiquitination to CC0651 [2]: insensitivity | Effect on hydrolysis of the ubiquitin~Cdc34A thioester to water [3]: inhibited
SMILES: COCC(=O)N[C@@H](Cc1ccc(-c2cc(Cl)cc(Cl)c2)cc1)[C@H](O)[C@@H](O)C(=O)O [CC0651, (2R,3S,4S)-5-(3′,5′-Dichloro-[1,1′-biphenyl]-4-yl)-2,3-dihydroxy-4-(2 methoxyacetamido)pentanoic acid]
